#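 Test compounds were applied to cells in 96-well plates for 48 hours at 5 doses. GI50 = concentration required for 50% inhibition of growth. TGI is the concentration that stops growth completely.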
# Legend:
# Experiment in all cases: DTP human tumour cell line panel, 48 h
# [1] = test system: MCF7 breast
# [2] = test system: SR leukemia
# [3] = test system: OVCAR-8 ovarian
# [4] = test system: HS 578T breast
# [5] = test system: T-47D breast
# [6] = test system: SF-539 CNS
# [7] = test system: NCI-H23 lung
# [8] = test system: CCRF-CEM leukemia
Structure (SMILES),GI50 [1],TGI [1],GI50 [2],TGI [2],GI50 [3],TGI [3],GI50 [4],TGI [4],GI50 [5],TGI [5],GI50 [6],TGI [6],GI50 [7],TGI [7],GI50 [8],TGI [8]
CC/C(=C(/c1ccc(OCCN(C)C)cc1)c1ccc(OC(=O)CCCCC(=O)c2c(C)[nH]c(/C=C3\N=C(c4ccc[nH]4)C=C3OC)c2C)cc1)c1ccccc1,0.0544 µM,1.2 µM,3.05 µM,21 µM,6.55 µM,19.9 µM,4.98 µM,47.6 µM,1.37 µM,6.02 µM,7.32 µM,20.6 µM,12.7 µM,29.7 µM,0.32 µM,> 100 µM
OCCN1CN(CCO)CN(c2nc(N3CN(CCO)CN(CCO)C3)nc(N3CN(CCO)CN(CCO)C3)n2)C1,,0.69 ng/mL,,0.63 ng/mL,,13.3 ng/mL,3.08 ng/mL,9.43 ng/mL,1.06 ng/mL,4.92 ng/mL,,,1.42 ng/mL,4.39 ng/mL,,
CNCCCn1cc(C2=C(c3cn(C)c4ccccc34)C(=O)NC2=O)c2ccccc21,2.74 µM,6.93 µM,3.94 µM,16.2 µM,4.99 µM,12.6 µM,2.06 µM,9.64 µM,5.66 µM,15.1 µM,3.59 µM,7.06 µM,5.21 µM,13.2 µM,4.91 µM,20.4 µM
O=C1NC(=Nc2ccccc2)S/C1=C\c1ccc2ncccc2c1,0.953 µM,> 25 µM,0.64 µM,> 25 µM,> 25 µM,> 25 µM,> 11.8 µM,> 25 µM,12.3 µM,> 25 µM,> 6.25 µM,> 25 µM,5.89 µM,> 25 µM,> 25 µM,> 25 µM
Ic1ccc(Nc2nc3nonc3nc2Nc2ccc(I)cc2)cc1,0.225 µM,> 100 µM,,,0.351 µM,> 100 µM,0.329 µM,2.21 µM,0.179 µM,> 91.1 µM,,,,,0.145 µM,> 100 µM
O=Cc1cc2c(cc1-c1c(C=O)ccc3c1OCO3)OCO2,,> 10 µM,,> 10 µM,,> 10 µM,,> 10 µM,,> 10 µM,,> 10 µM,,> 10 µM,,> 10 µM
C#Cc1cccc(Nc2ncnc3cc(OC)c(OCCCCCCC(=O)NO)cc23)c1,0.19 µM,3.5 µM,0.0219 µM,2.09 µM,0.117 µM,4.43 µM,0.086 µM,1.04 µM,0.0465 µM,0.495 µM,0.198 µM,1.34 µM,0.383 µM,2.57 µM,0.0404 µM,5.85 µM
C/C1=C\CC[C@@]2(C)O[C@@H]2[C@H]2OC(=O)[C@@H](CN(C)C)[C@@H]2CC1,4.96 µM,> 100 µM,,,23.2 µM,52.8 µM,22.7 µM,> 100 µM,39.4 µM,> 100 µM,2.45 µM,5.62 µM,19.2 µM,40 µM,2.11 µM,5.61 µM
COC(=O)/C=C/c1cc(O)c2oc(-c3ccc(O)c(O)c3)c(C(=O)OC)c2c1,0.286 µM,9.75 µM,0.039 µM,> 24.3 µM,0.521 µM,13 µM,0.405 µM,9.18 µM,0.577 µM,9.48 µM,0.159 µM,1.96 µM,0.43 µM,7.81 µM,0.402 µM,> 21.8 µM
C/C(=C\CCc1ccoc1)CC/C=C(\C)CCCC1=CC(=O)OC1,3.47 µM,36.9 µM,3.45 µM,17.1 µM,5.11 µM,29.8 µM,3.26 µM,36 µM,2.27 µM,22.9 µM,13.2 µM,40.1 µM,4.74 µM,29.6 µM,,
C[C@H]1c2cccc(O)c2C(O)=C2C(=O)[C@]3(O)C(O)=C(C(N)=O)C(=O)[C@@H](N(C)C)[C@@H]3[C@@H](O)[C@@H]21,3.51 µM,28.2 µM,1.98 µM,4.67 µM,3.29 µM,14.7 µM,3.42 µM,27 µM,3.28 µM,34.8 µM,3.88 µM,14.8 µM,2.99 µM,11.9 µM,,
NC(=NCCCOc1ccc(Cl)cc1)Nc1ccc(C(F)(F)F)cc1,1.72 µM,4.85 µM,1.77 µM,5.95 µM,2.18 µM,6.05 µM,3.35 µM,18.8 µM,,,,,2.06 µM,5.54 µM,2.59 µM,9.75 µM
Clc1ccc2c(NCCCNc3nccc(Nc4ccc(Br)cc4)n3)ccnc2c1,1.39 µM,2.94 µM,,,,,,,,,1.81 µM,3.37 µM,1.74 µM,3.27 µM,,
O=c1c2ccccc2[se]n1-c1cccnc1,,80.6 µM,,> 100 µM,,69.5 µM,,42.1 µM,,57.3 µM,,56.5 µM,,53.2 µM,,
CCCCCCCCCC/C=C/CC(=O)SCCNC(=O)CCNC(=O)[C@@H](O)C(C)(C)COP(=O)(O)OP(=O)(O)OCC1OC(n2cnc3c(N)ncnc32)C(O)C1OP(=O)(O)O (some centres undefined),,> 10 µM,,,,> 10 µM,,> 10 µM,,> 10 µM,,> 10 µM,,> 10 µM,,> 10 µM
O=C(OCc1ccc2cccc(O)c2n1)N1CCN(C(=O)c2cc3cc(F)ccc3[nH]2)CC1,,,0.272 µM,1.6 µM,1.01 µM,2.47 µM,1.42 µM,5.72 µM,,,1.15 µM,2.36 µM,1.62 µM,3.45 µM,0.242 µM,0.995 µM
Cc1c2cccnc2c(C)c2c1c1cc(CO)ccc1n2C,0.501 µM,12.7 µM,,,1.55 µM,18.1 µM,3.38 µM,34.5 µM,0.989 µM,4.97 µM,2.49 µM,11.7 µM,2.31 µM,16 µM,1.87 µM,45.7 µM
C=CC1CC12C(=O)C1OC2(C)C2C(=O)c3cc4ccccc4cc3C(=O)C12 (centres undefined),16.1 µM,> 100 µM,,,24.2 µM,92.3 µM,27 µM,92 µM,23.1 µM,> 100 µM,30.2 µM,96.9 µM,25.9 µM,> 100 µM,,

# — PubChem BioAssay (NCI)
